Measured values reported in PMC9917560, “Design, Synthesis and Antimicrobial Evaluation of New N-(1-Hydroxy-1,3-dihydrobenzo[c][1,2]oxaborol-6-yl)(hetero)aryl-2-carboxamides as Potential Inhibitors of Mycobacterial Leucyl-tRNA Synthetase” (International Journal of Molecular Sciences, 2023).
Values after ≈ are worked out from the molar mass of the structure shown. Like-named read-outs stand apart in the source and are kept apart here.

What was measured:
[1] = tested on: Mycolicibacterium smegmatis DSM 43,465 (ATCC 607); test: Antimycobacterial microdilution (resazurin) vs M. smegmatis; type: cell-based; settings: Middlebrook 7H9, resazurin, read-out: MIC M. smeg.
[2] = tested on: Klebsiella pneumoniae CCM 4415 (ATCC 10031); test: Antibacterial microdilution broth (EUCAST); type: cell-based; settings: Klebsiella pneumoniae, read-out: MIC Klebsiella pneumoniae
[3] = tested on: Candida albicans CCM 8320 (ATCC 24433); test: Antifungal microdilution broth (EUCAST); type: cell-based; settings: Candida albicans, read-out: MIC Candida albicans
[4] = tested on: methicillin-resistant Staphylococcus aureus subsp. aureus (MRSA) CCM 4750 (ATCC 43300); test: microbe, parasite or virus in culture; type: cell-based; settings: read-out: MIC Methicillin-resistant Staphylococcus aureus subsp. aureus
[5] = tested on: Candida tropicalis CCM 8264 (ATCC 750); test: Antifungal microdilution broth (EUCAST); type: cell-based; settings: read-out: MIC Candida tropicalis
[6] = tested on: Pseudomonas aeruginosa CCM 3955 (ATCC 27853); test: Antibacterial microdilution broth (EUCAST); type: cell-based; settings: read-out: MIC Pseudomonas aeruginosa
[7] = tested on: Enterococcus faecalis CCM 4224 (ATCC 29212); test: Antibacterial microdilution broth (EUCAST); type: cell-based; settings: read-out: MIC Enterococcus faecalis
[8] = tested on: Acinetobacter baumannii DSM 30007 (ATCC 19606); test: Antibacterial microdilution broth (EUCAST); type: cell-based; settings: read-out: MIC Acinetobacter baumannii
[9] = tested on: Mycobacterium tuberculosis H37Rv CNCTC My 331/88 (ATCC 27294); test: Microplate Alamar Blue assay vs Mtb H37Rv; type: cell-based; settings: Middlebrook 7H9 pH 6.6, recalculated from µg/mL, read-out: MIC Mtb H37Rv
[10] = tested on: Candida parapsilosis CCM 8260 (ATCC 22019); test: Antifungal microdilution broth (EUCAST); type: cell-based; settings: Lodderomyces parapsilosis, read-out: MIC Candida parapsilosis
[11] = tested on: Mycobacterium avium DSM 44,156 (ATCC 25291); test: Antimycobacterial microdilution (resazurin) vs M. avium; type: cell-based; settings: Mycobacterium avium, Middlebrook 7H9, resazurin; read-out: MIC M. avium
[12] = tested on: Staphylococcus epidermidis CCM 4418 (ATCC 12228); test: Antibacterial microdilution broth (EUCAST); type: cell-based; settings: read-out: MIC Staphylococcus epidermidis
[13] = tested on: Candida krusei CCM 8271 (ATCC 6258); test: Antifungal microdilution broth (EUCAST); type: cell-based; settings: Pichia kudriavzevii, read-out: MIC Candida krusei
[14] = tested on: Lichtheimia corymbifera CCM 8077; test: Antifungal microdilution broth (EUCAST); type: cell-based; settings: Lichtheimia corymbifera, CCM8077, read-out: MIC Lichtheimia corymbifera
[15] = tested on: Escherichia coli CCM 3954 (ATCC 25922); test: Antibacterial microdilution broth (EUCAST); type: cell-based; settings: Escherichia coli, read-out: MIC Escherichia coli
[16] = tested on: Mycolicibacterium aurum DSM 43,999 (ATCC 23366); test: Antimycobacterial microdilution (resazurin) vs M. aurum; type: cell-based; settings: read-out: MIC M. aurum
[17] = tested on: Aspergillus flavus CCM 8363; test: Antifungal microdilution broth (EUCAST); type: cell-based; settings: Aspergillus flavus, CCM8363, read-out: MIC Aspergillus flavus
[18] = tested on: Staphylococcus aureus subsp. aureus CCM 4223 (ATCC 29213); test: Antibacterial microdilution broth (EUCAST); type: cell-based; settings: read-out: MIC Staphylococcus aureus subsp. aureus
[19] = tested on: Mycobacterium tuberculosis H37Ra ITM-M006710 (ATCC 9431); test: Antimycobacterial microdilution (resazurin) vs Mtb H37Ra; type: cell-based; settings: Middlebrook 7H9, resazurin, recalculated from µg/mL, read-out: MIC Mtb H37Ra
[20] = tested on: Aspergillus fumigatus ATCC 204305; test: Antifungal microdilution broth (EUCAST); type: cell-based; settings: Aspergillus fumigatus, ATCC204305, read-out: MIC Aspergillus fumigatus
[21] = tested on: HepG2 cell line; test: Cytotoxicity screening, CellTiter 96 assay; settings: Homo sapiens, HepG2, 24 h, read-out: IC50 HepG2
[22] = tested on: Mycobacterium kansasii DSM 44,162 (ATCC 12478); test: Antimycobacterial microdilution (resazurin) vs M. kansasii; type: cell-based; settings: Middlebrook 7H9, resazurin, read-out: MIC M. kansasii
[23] = tested on: Trichophyton interdigitale CCM 8377 (ATCC 9533); test: Antifungal microdilution broth (EUCAST); type: cell-based; settings: Trichophyton interdigitale, read-out: MIC Trichophyton interdigitale
[24] = Mycobacterium tuberculosis, pH 6.6, MABA

## O=C(Nc1ccc2c(c1)B(O)OC2)c1ccc(O)nc1 [Compound 13, 6-hydroxy-N-(1-hydroxy-1,3-dihydrobenzo[c][1,2]oxaborol-6-yl)nicotinamide]
[1]
  MIC: 116 µM (≈ 31.3 µg/mL)
[2]; 24h incubation
  MIC: > 500 µM
[2]; 48h incubation
  MIC: > 500 µM
[3]; 24h incubation
  MIC: > 500 µM
[3]; 48h incubation
  MIC: > 500 µM
[4]; 24 h
  MIC: > 500 µM
[4]; 48 h
  MIC: > 500 µM
[5]; 24h incubation
  MIC: > 500 µM
[5]; 48h incubation
  MIC: > 500 µM
[6]; 24h incubation
  MIC: > 500 µM
[6]; 48h incubation
  MIC: > 500 µM
[7]; 24h incubation
  MIC: > 500 µM
[7]; 48h incubation
  MIC: > 500 µM
[8]; 24h incubation
  MIC: > 500 µM
[8]; 48h incubation
  MIC: > 500 µM
[9]; MABA
  MIC: >370.30 µM
[9]; [24]
  MIC: > 370 µM
[10]; 24h incubation
  MIC: > 500 µM
[10]; 48h incubation
  MIC: > 500 µM
[11]
  MIC: 463 µM (≈ 125 µg/mL)
[12]; 24h incubation
  MIC: > 500 µM
[12]; 48h incubation
  MIC: > 500 µM
[13]; 24h incubation
  MIC: > 500 µM
[13]; 48h incubation
  MIC: > 500 µM
[14]; 24h incubation
  MIC: > 500 µM
[14]; 48h incubation
  MIC: > 500 µM
[15]; 24h incubation
  MIC: > 500 µM
[15]; 48h incubation
  MIC: > 500 µM
[16]; Middlebrook 7H9, resazurin
  MIC: 116 µM (≈ 31.3 µg/mL)
[17]; 24h incubation
  MIC: > 500 µM
[17]; 48h incubation
  MIC: > 500 µM
[18]; 24h incubation
  MIC: > 500 µM
[18]; 48h incubation
  MIC: > 500 µM
[19]
  MIC: 463 µM (≈ 125 µg/mL)
[20]; 24h incubation
  MIC: > 500 µM
[20]; 48h incubation
  MIC: > 500 µM
other
  melting point: 304.8 to 306.9 °C
[21]
  IC50: > 1000 µM
[22]
  MIC: 116 µM (≈ 31.3 µg/mL)
[23]; 72h incubation
  MIC: > 500 µM
[23]; 120h incubation
  MIC: > 500 µM

## O=C(Nc1ccc2c(c1)B(O)OC2)c1ccc(Cl)cc1 [Compound 14, 4-chloro-N-(1-hydroxy-1,3-dihydrobenzo[c][1,2]oxaborol-6-yl)benzamide]
[1]
  MIC: 217 µM (≈ 62.5 µg/mL)
[2]; 24h incubation
  MIC: > 500 µM
[2]; 48h incubation
  MIC: > 500 µM
[3]; 24h incubation
  MIC: > 125 µM
[3]; 48h incubation
  MIC: > 125 µM
[4]; 24 h
  MIC: > 500 µM
[4]; 48 h
  MIC: > 500 µM
[5]; 24h incubation
  MIC: > 125 µM
[5]; 48h incubation
  MIC: > 125 µM
[6]; 24h incubation
  MIC: > 500 µM
[6]; 48h incubation
  MIC: > 500 µM
[7]; 24h incubation
  MIC: > 500 µM
[7]; 48h incubation
  MIC: > 500 µM
[8]; 24h incubation
  MIC: > 500 µM
[8]; 48h incubation
  MIC: > 500 µM
[9]; [24]
  MIC: 43.5 µM (≈ 12.5 µg/mL)
[10]; 24h incubation
  MIC: > 125 µM
[10]; 48h incubation
  MIC: > 125 µM
[11]
  MIC: 435 µM (≈ 125 µg/mL)
[12]; 24h incubation
  MIC: > 500 µM
[12]; 48h incubation
  MIC: > 500 µM
[13]; 24h incubation
  MIC: > 125 µM
[13]; 48h incubation
  MIC: > 125 µM
[14]; 24h incubation
  MIC: > 125 µM
[14]; 48h incubation
  MIC: > 125 µM
[15]; 24h incubation
  MIC: > 500 µM
[15]; 48h incubation
  MIC: > 500 µM
[16]; Middlebrook 7H9, resazurin
  MIC: 13.6 µM (≈ 3.91 µg/mL)
[17]; 24h incubation
  MIC: > 125 µM
[17]; 48h incubation
  MIC: > 125 µM
[18]; 24h incubation
  MIC: > 500 µM
[18]; 48h incubation
  MIC: > 500 µM
[19]
  MIC: 435 µM (≈ 125 µg/mL)
[20]; 24h incubation
  MIC: > 125 µM
[20]; 48h incubation
  MIC: > 125 µM
other
  melting point: 225.5 to 228.1 °C
[21]
  IC50: > 1000 µM
[22]
  MIC: 217 µM (≈ 62.5 µg/mL)
[23]; 72h incubation
  MIC: > 125 µM
[23]; 120h incubation
  MIC: > 125 µM

## O=C(Nc1ccc2c(c1)B(O)OC2)c1ccc(Cl)s1 [Compound 15, 5-chloro-N-(1-hydroxy-1,3-dihydrobenzo[c][1,2]oxaborol-6-yl)thiophene-2-carboxamide]
[1]
  MIC: 852 µM (≈ 250 µg/mL)
[2]; 24h incubation
  MIC: > 500 µM
[2]; 48h incubation
  MIC: > 500 µM
[3]; 24h incubation
  MIC: > 500 µM
[3]; 48h incubation
  MIC: > 500 µM
[4]; 24 h
  MIC: 500 µM (≈ 147 µg/mL)
[4]; 48 h
  MIC: 500 µM (≈ 147 µg/mL)
[5]; 24h incubation
  MIC: > 500 µM
[5]; 48h incubation
  MIC: > 500 µM
[6]; 24h incubation
  MIC: > 500 µM
[6]; 48h incubation
  MIC: > 500 µM
[7]; 24h incubation
  MIC: > 500 µM
[7]; 48h incubation
  MIC: > 500 µM
[8]; 24h incubation
  MIC: > 500 µM
[8]; 48h incubation
  MIC: > 500 µM
[9]; [24]
  MIC: 42.6 µM (≈ 12.5 µg/mL)
[10]; 24h incubation
  MIC: > 500 µM
[10]; 48h incubation
  MIC: > 500 µM
[11]
  MIC: 426 µM (≈ 125 µg/mL)
[12]; 24h incubation
  MIC: 500 µM (≈ 147 µg/mL)
[12]; 48h incubation
  MIC: 500 µM (≈ 147 µg/mL)
[13]; 24h incubation
  MIC: > 500 µM
[13]; 48h incubation
  MIC: > 500 µM
[14]; 24h incubation
  MIC: > 500 µM
[14]; 48h incubation
  MIC: > 500 µM
[15]; 24h incubation
  MIC: > 500 µM
[15]; 48h incubation
  MIC: > 500 µM
[16]
  MIC: 53.2 µM (≈ 15.6 µg/mL)
[17]; 24h incubation
  MIC: > 500 µM
[17]; 48h incubation
  MIC: > 500 µM
[18]; 24h incubation
  MIC: 500 µM (≈ 147 µg/mL)
[18]; 48h incubation
  MIC: 500 µM (≈ 147 µg/mL)
[19]
  MIC: 53.2 µM (≈ 15.6 µg/mL)
[20]; 24h incubation
  MIC: > 500 µM
[20]; 48h incubation
  MIC: > 500 µM
other
  melting point: 234.9 to 237.1 °C
[21]
  IC50: 210 µM
[22]
  MIC: 106 µM (≈ 31.3 µg/mL)
[23]; 72h incubation
  MIC: > 500 µM
[23]; 120h incubation
  MIC: > 500 µM
